What all share (assay): Nanosyn kinase profiling
Holding throughout (type): biochemical
Common to all, as to settings: read-out: Percentage inhibition; for inhibition at 0.1 µM: 0.1 µM inhibitor; for inhibition at 1 µM: 1 µM inhibitor

The target of one experiment is T1, FGFR4 (Homo sapiens, UniProt P22455).
T1 construct: purchased Nanosyn (enzymatic panel); SGC in-house recombinant human kinases (DSF panel); Invitrogen (ALK1-6)
The essentials:
(§1)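 Percent inhibition of each kinase was measured with the inhibitor at 0.1 µM and at 1 µM, as part of a 200-kinase human selectivity panel.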

The target in another experiment is T2, MST2 (Homo sapiens, UniProt Q13188).
T2 construct: purchased Nanosyn (enzymatic panel); SGC in-house recombinant human kinases (DSF panel); Invitrogen (ALK1-6)
T2 sequence (Q13188 1-491): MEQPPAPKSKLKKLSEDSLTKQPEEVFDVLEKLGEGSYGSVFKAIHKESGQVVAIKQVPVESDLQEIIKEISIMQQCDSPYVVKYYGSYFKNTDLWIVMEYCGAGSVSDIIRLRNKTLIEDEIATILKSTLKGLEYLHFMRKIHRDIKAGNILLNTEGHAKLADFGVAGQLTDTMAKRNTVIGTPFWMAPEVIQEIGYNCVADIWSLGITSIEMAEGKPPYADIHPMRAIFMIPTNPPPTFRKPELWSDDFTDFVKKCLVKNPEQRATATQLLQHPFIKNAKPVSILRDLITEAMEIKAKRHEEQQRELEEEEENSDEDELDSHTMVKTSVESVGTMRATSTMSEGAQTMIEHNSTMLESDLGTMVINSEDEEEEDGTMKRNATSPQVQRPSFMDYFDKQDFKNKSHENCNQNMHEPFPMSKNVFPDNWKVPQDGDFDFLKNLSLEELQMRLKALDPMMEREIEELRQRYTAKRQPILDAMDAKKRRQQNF
The essentials: as §1

In the next experiment the target is T3, DDR2 (Homo sapiens, UniProt Q16832).
T3 construct: purchased Nanosyn (enzymatic panel); SGC in-house recombinant human kinases (DSF panel); Invitrogen (ALK1-6)
T3 sequence (Q16832 22-855): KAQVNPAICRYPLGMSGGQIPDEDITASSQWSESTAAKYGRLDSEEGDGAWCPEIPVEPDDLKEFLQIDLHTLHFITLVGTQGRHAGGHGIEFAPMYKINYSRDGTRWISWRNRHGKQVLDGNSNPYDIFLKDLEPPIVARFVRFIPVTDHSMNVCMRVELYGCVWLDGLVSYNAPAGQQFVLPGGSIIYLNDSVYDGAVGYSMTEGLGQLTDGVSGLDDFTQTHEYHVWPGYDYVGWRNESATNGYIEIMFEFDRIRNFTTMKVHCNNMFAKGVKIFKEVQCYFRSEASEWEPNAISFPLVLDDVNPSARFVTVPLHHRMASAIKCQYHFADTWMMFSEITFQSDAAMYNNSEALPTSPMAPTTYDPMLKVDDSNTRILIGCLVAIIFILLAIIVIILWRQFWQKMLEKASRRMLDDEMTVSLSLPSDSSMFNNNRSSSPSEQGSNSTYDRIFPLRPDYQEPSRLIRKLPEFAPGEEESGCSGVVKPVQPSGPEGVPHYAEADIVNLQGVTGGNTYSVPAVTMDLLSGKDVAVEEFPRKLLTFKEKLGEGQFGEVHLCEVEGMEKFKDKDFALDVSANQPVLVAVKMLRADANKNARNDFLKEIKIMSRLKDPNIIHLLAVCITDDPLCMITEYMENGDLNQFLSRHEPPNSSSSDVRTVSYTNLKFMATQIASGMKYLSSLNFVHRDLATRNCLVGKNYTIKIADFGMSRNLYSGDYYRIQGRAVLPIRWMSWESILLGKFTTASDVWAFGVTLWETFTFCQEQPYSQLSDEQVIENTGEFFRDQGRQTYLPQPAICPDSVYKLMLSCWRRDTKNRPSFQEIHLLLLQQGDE
The method, boiled down:
as §1

For a further experiment, the target named is T4, TRKC (Homo sapiens, UniProt Q16288).
T4 construct: purchased Nanosyn (enzymatic panel); SGC in-house recombinant human kinases (DSF panel); Invitrogen (ALK1-6)
T4 sequence (Q16288 32-839): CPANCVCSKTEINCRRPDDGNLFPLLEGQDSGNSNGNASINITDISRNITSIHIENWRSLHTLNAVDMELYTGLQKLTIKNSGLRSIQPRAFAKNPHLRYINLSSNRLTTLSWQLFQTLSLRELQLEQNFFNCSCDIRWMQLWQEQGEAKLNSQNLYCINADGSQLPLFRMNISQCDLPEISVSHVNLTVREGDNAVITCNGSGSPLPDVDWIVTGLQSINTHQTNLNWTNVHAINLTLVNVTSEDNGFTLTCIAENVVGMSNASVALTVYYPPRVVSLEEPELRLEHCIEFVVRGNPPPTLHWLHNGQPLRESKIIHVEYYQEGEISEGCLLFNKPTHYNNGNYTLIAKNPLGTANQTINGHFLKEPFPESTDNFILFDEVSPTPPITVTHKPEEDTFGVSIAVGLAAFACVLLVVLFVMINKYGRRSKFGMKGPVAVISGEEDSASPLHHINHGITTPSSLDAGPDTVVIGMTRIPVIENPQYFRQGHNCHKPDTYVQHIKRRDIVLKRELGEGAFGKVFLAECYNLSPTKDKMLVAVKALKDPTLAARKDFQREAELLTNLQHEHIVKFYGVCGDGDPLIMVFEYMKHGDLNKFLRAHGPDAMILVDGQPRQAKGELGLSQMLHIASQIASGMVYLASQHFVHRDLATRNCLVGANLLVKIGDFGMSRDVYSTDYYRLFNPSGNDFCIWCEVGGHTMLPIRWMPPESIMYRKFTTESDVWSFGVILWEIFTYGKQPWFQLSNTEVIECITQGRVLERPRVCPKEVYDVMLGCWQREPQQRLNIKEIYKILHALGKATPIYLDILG
The method, boiled down:
as §1

The next experiment deals with T5, NEK9 (Homo sapiens, UniProt Q8TD19).
T5 construct: purchased Nanosyn (enzymatic panel); SGC in-house recombinant human kinases (DSF panel); Invitrogen (ALK1-6)
T5 sequence (Q8TD19 1-979): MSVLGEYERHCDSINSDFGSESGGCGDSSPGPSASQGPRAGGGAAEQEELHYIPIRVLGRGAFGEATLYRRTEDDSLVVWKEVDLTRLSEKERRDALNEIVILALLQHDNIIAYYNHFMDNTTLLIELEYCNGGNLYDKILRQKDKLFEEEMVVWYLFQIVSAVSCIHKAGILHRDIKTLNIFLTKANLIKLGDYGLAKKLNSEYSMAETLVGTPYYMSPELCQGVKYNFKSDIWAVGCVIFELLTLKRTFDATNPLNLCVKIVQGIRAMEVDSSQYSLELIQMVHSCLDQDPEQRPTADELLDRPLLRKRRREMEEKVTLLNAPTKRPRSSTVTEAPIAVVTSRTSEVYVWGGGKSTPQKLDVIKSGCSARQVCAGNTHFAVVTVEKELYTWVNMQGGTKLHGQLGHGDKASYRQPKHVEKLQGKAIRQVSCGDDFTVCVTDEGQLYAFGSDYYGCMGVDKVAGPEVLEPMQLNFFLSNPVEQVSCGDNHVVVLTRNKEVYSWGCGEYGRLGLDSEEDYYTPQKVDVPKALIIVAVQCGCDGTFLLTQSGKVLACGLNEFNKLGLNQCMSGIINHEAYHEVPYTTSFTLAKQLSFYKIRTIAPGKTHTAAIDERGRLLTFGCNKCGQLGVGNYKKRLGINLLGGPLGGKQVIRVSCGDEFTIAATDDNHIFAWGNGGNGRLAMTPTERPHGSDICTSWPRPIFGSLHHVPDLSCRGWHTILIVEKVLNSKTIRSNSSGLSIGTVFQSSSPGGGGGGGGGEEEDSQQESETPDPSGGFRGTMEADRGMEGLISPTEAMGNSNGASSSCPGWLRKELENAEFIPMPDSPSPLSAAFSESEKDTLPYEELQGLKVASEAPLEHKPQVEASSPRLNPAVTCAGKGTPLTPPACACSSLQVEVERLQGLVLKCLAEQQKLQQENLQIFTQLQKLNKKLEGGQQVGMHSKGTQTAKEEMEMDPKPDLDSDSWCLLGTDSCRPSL
The essentials:
as §1

T1 sequence (P22455 22-802): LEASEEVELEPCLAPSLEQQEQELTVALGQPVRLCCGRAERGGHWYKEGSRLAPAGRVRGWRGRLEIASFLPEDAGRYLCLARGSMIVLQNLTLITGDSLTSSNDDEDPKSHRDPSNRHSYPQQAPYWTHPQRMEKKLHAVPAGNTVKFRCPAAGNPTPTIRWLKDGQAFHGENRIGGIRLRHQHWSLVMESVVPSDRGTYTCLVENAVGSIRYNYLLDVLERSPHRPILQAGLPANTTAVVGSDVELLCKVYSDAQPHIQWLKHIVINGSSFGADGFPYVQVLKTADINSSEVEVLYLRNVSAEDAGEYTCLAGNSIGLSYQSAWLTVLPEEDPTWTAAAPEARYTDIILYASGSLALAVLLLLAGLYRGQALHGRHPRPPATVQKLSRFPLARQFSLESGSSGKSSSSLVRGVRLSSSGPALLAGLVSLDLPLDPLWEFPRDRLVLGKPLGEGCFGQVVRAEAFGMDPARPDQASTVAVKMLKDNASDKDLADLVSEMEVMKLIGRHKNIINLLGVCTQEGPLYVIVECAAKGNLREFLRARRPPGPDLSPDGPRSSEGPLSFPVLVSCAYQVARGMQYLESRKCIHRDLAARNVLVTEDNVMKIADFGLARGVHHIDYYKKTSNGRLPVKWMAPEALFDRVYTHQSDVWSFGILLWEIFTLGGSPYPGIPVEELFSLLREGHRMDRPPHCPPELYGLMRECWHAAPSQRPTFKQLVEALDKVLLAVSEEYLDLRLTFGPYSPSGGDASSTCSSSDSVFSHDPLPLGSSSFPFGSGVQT

Usually inhibition stands for the drop in the measured response relative to a control, in per cent. For the molecule `COc1cc(-c2cc(-c3cccc(O)c3)cnc2N)cc(OC)c1OC` [K02288, 3-[6-amino-5-(3,4,5-trimethoxy-phenyl)-pyridin-3-yl]-phenol], the inhibition at 0.1 µM at FGFR4 was 4%; at MST2, -2%; on DDR2, 0%; at TRKC it was 2.7%; on NEK9, 5.3%. The inhibition at 1 µM at FGFR4 is 0%; on MST2, -1%; at DDR2, 11%; at TRKC it was 2.4%; at NEK9, -2%.

Regarding `c1ccc2c(-c3cnn4cc(-c5ccc(N6CCNCC6)cc5)cnc34)ccnc2c1` [LDN-193189], the inhibition at 0.1 µM came out at 0.3% on FGFR4; 5.1% on MST2; 5.5% on DDR2; 1.6% at TRKC; 1.9% on NEK9. In addition, the inhibition at 1 µM is 2.4% at FGFR4; 6% on MST2; 27% on DDR2; 3.9% on TRKC; 6.6% at NEK9.

Values taken from paper PMC3639963, “A New Class of Small Molecule Inhibitor of BMP Signaling” (PLoS ONE, 2013).
